Measurements reported in the NIST ThermoML archive (doi:10.1016/j.jct.2017.12.023).

Key:
[1] = xn = mol fraction of the nth substance listed; settings: 100 kPa, Liquid, x2 = 0; for viscosity: Concentric cylinders viscometry; for mass density: Vibrating tube method
[2] = refractive index (Na D-line) (dimensionless); xn = mol fraction of the nth substance listed; settings: 100 kPa, Liquid, Standard Abbe refractometry, x2 = 0
[3] = refractive index (Na D-line) (dimensionless); settings: 100 kPa, Liquid, Standard Abbe refractometry
[4] = Liquid; for viscosity / mass density: 100 kPa; for viscosity: Concentric cylinders viscometry; for mass density: Vibrating tube method; for thermal conductivity: 101.33 kPa, transient hot wire

CN1CCCC1=O [N-methylpyrrolidone] + CCOS(=O)(=O)[O-].CCn1cc[n+](C)c1
Settings	mass density, [1] [kg/m3]	refractive index, [2]	viscosity, [1] [mPa·s]
288.15 K	1037.3	1.47166	1.99
293.15 K	1032.84	1.46952	1.823
298.15 K	1028.38	1.46736	1.679
303.15 K	1023.93	1.4652	1.555
308.15 K	1019.46	1.46306	1.444
313.15 K	1015	1.46095	1.346
318.15 K	1010.53	1.45891	1.259
323.15 K	1006.06	1.4568	1.182
328.15 K	1001.58	1.45473	1.11
333.15 K	997.1	1.45267	1.043

CCCCCCO [hexan-1-ol]
Settings	mass density, [4] [kg/m3]	refractive index, [3]	viscosity, [4] [mPa·s]
288.15 K	822.26	1.41986	6.297
293.15 K	818.69	1.4179	5.324
298.15 K	815.11	1.41591	4.53
303.15 K	811.51	1.41386	3.889
308.15 K	807.88	1.41182	3.355
313.15 K	804.23	1.40981	2.912
318.15 K	800.56	1.40779	2.541
323.15 K	796.85	1.40574	2.251

CCCCCCO [hexan-1-ol] + CCOS(=O)(=O)[O-].CCn1cc[n+](C)c1
Settings	mass density, [1] [kg/m3]	refractive index, [2]	viscosity, [1] [mPa·s]
288.15 K	822.26	1.41986	6.297
293.15 K	818.69	1.4179	5.324
298.15 K	815.11	1.41591	4.53
303.15 K	811.51	1.41386	3.889
308.15 K	807.88	1.41182	3.355
313.15 K	804.23	1.40981	2.912
318.15 K	800.56	1.40779	2.541
323.15 K	796.85	1.40574	2.251

CCOS(=O)(=O)[O-].CCn1cc[n+](C)c1 [1-ethyl-3-methylimidazolium ethyl sulfate]
Settings	mass density, [4] [kg/m3]	refractive index, [3]	thermal conductivity, [4] [W/m/K]	viscosity, [4] [mPa·s]
288.15 K	1243.07	1.48155	–	155.55
293.15 K	1239.66	1.48018	–	117.88
298.15 K	1236.27	1.47882	–	91.26
303.15 K	1232.87	1.47746	0.1808	72.1
308.15 K	1229.49	1.47611	0.18	57.98
313.15 K	1226.13	1.47474	0.1795	47.26
318.15 K	1222.79	1.47341	0.1787	39.25
323.15 K	1219.46	1.47206	0.178	32.94
328.15 K	1216.16	1.47075	–	27.96
333.15 K	1212.86	1.46943	–	24.09
